Among the data in patent US20260209214A1, “LSD1 MODULATORS” (RECURSION PHARMACEUTICALS, INC., priority 2022, published 2026) are IC50 values, retold here.

A value given as a limit tells only on which side of the number the result lay.

As a reminder, the IC50 is the concentration needed to halve the response being measured.

The target in the experiment is Recombinant human LSD1 (Homo sapiens, UniProt O60341). Briefly: LSD1 inhibition assay (HTRF LSD1 Histone H3K4 mono-demethylation assay, me1->me0). The experiment is classed as biochemical. Conditions: 20 nM recombinant human LSD1, 95 nM H3K4(me1) biotinylated peptide, 15 min preincubation, 60 min at 25° C., read-out: LSD1 inhibition IC50 (nM range). In a few lines: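 Recombinant human LSD1 (20 nM) pre-incubated 15 min with 10 semi-log compound doses, then 95 nM biotinylated H3K4me1 peptide for 60 min at 25 °C in pH 8.5 Tris/NaCl buffer with 10 μM FAD, 1 mM DTT. HTRF me0-antibody read after 90 min; IC50 from 4-parameter fit.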
(Time-resolved FRET reads energy transfer from a long-lived donor to a nearby acceptor.)
With `N#Cc1ccc(-c2cccc(CN3C[C@]4(N)CC[C@H]3C4)c2Cl)cc1F` [Example 196, 3'-{[(1S,4S)-4-amino-2-azabicyclo[2.2.1]heptan-2-yl]methyl}-2'-chloro-3-fluoro-[1,1'-biphenyl]-4-carbonitrile], the half-maximal inhibitory concentration (IC50) was in the range of 25 to 100 nM.
The result for `N#Cc1ccc(-c2cc(CC3CNCCO3)ccc2C2CCCC2)cc1` (stereo not drawn) [Example 162, 2′-cyclopentyl-5′-[(morpholin-2-yl)methyl]-[1,1′-biphenyl]-4-carbonitrile] reads greater than 1000 nM.
In the case of `N#Cc1ccc(-c2cccc(CN3CC4(CCCNC4)C3)c2-c2cnco2)cc1F` [Example 333, 3'-({2,6-diazaspiro[3.5]nonan-2-yl}methyl)-3-fluoro-2'-(1,3-oxazol-5-yl)-[1,1'-biphenyl]-4-carbonitrile], the IC50 fell in the range of 10 to 25 nM.
The result for `N#Cc1ccc(-c2cc(CC3CNCCO3)ccc2N2CCC(c3ncccn3)CC2)cc1F` (stereo not drawn) [Example 59, 3-fluoro-5′-[(morpholin-2-yl)methyl]-2′-[4-(pyrimidin-2-yl)piperidin-1-yl]-[1,1′-biphenyl]-4-carbonitrile] reads 100 to 1000 nM.
For `CC(C)N[C@@H]1C[C@@H]2CC[C@H]1N2Cc1cccc(-c2ccc(C#N)c(F)c2)c1C1CC1` (single isomer, unassigned) [Example 248], the IC50 was 100 to 1000 nM.
Take `N#Cc1ccc(-c2ccc(F)c(CC3CNCCO3)c2-c2cncs2)cc1F` (stereo not drawn) [Example 25, 3,4′-difluoro-3′-[(morpholin-2-yl)methyl]-2′-(1,3-thiazol-5-yl)-[1,1′-biphenyl]-4-carbonitrile]: the half-inhibitory concentration (IC50) is 10 to 25 nM.
The result for `Cc1cc(CNCC2CCCN(C)C2)c(Cl)c(-c2ccc(C#N)c(F)c2)c1` (stereo not drawn) [Example 346, 2'-chloro-3-fluoro-5'-methyl-3'-({[(1-methylpiperidin-3-yl)methyl]amino}methyl)-[1,1'-biphenyl]-4-carbonitrile] reads 100 to 1000 nM; that for `Cc1ncsc1-c1c(CC2CNCCO2)cccc1-c1ccc(C#N)cc1` (stereo not drawn) [Example 38, 2′-(4-methyl-1,3-thiazol-5-yl)-3′-[(morpholin-2-yl)methyl]-[1,1′-biphenyl]-4-carbonitrile], 10 to 25 nM; that for `N#Cc1ccc(-c2cccc(CN3[C@@H]4CC[C@H]3[C@@H](N)C4)c2C2=CCOC2)cc1F` (racemic) [Example 303, 3'-{[(1S,2S,4R)-2-amino-7-azabicyclo[2.2.1]heptan-7-yl]methyl}-2'-(2,5-dihydrofuran-3-yl)-3-fluoro-[1,1'-biphenyl]-4-carbonitrile], less than 10 nM.
Regarding `N#Cc1ccc(-c2cccc(CN3CCC4(CCCN4)C3)c2C2CC2)cc1F` (stereo not drawn) [Example 266, Fc1cc(ccc1C#N)c2cccc(CN3CCC4(CCCN4)C3)c2C5CC5], the IC50 was in the range of 100 to 1000 nM.
Consider `N#Cc1ccc(-c2cc(CC3CNCCO3)ccc2N2CCCC2)cc1F` (stereo not drawn) [Example 147, 3-fluoro-5′-[(morpholin-2-yl)methyl]-2′-(pyrrolidin-1-yl)-[1,1′-biphenyl]-4-carbonitrile], for which the 50% inhibitory concentration (IC50) lay in the range of 100 to 1000 nM.
Take `N#Cc1ccc(-c2cccc(N3CCC(N)CC3)c2-c2cncs2)cc1F` [Example 115, 3'-(4-aminopiperidin-1-yl)-3-fluoro-2'-(1,3-thiazol-5-yl)-[1,1'-biphenyl]-4-carbonitrile]: the half-inhibitory concentration (IC50) was 10 to 25 nM.
In the case of `COCC1(O)CCCN(c2ccc(CC3CNCCO3)cc2-c2ccc(C#N)c(F)c2)CC1` (stereo not drawn) [Example 152, 3-fluoro-2′-[4-hydroxy-4-(methoxymethyl)azepan-1-yl]-5′-[(morpholin-2-yl)methyl]-[1,1′-biphenyl]-4-carbonitrile], the concentration for half-maximal inhibition (IC50) lay within 100 to 1000 nM.
`N#Cc1ccc(-c2cccc(CN3CCCC(N)C3)c2Cl)cc1F` (stereo not drawn) [Example 332, 3'-[(3-aminopiperidin-1-yl)methyl]-2'-chloro-3-fluoro-[1,1'-biphenyl]-4-carbonitrile]: the IC50 lay within 100 to 1000 nM.
The result for `Cn1nc2ccc(-c3ccc(CN4C[C@@]5(N)CC[C@@H]4C5)cc3-c3ccc(C#N)c(F)c3)cc2c1Cl` [Example 233, 5'-{[(1R,4R)-4-amino-2-azabicyclo[2.2.1]heptan-2-yl]methyl}-2'-(3-chloro-2-methyl-2H-indazol-5-yl)-3-fluoro-[1,1'-biphenyl]-4-carbonitrile] reads 10 to 25 nM.
For `COC1(C)CCN(c2ccc(CC3CNCCO3)cc2-c2ccc(C#N)c(F)c2)CC1` (stereo not drawn) [Example 61, 3-fluoro-2′-(4-methoxy-4-methylpiperidin-1-yl)-5′-[(morpholin-2-yl)methyl]-[1,1′-biphenyl]-4-carbonitrile], the IC50 was 100 to 1000 nM.
The result for `Cn1nc2ccc(-c3ccc(CN4C[C@]5(N)CC[C@H]4C5)cc3-c3ccc(C#N)c(F)c3)cc2c1Cl` [Example 263, 5'-{[(1S,4S)-4-amino-2-azabicyclo[2.2.1]heptan-2-yl]methyl}-2'-(3-chloro-2-methyl-2H-indazol-5-yl)-3-fluoro-[1,1'-biphenyl]-4-carbonitrile] reads less than 10 nM; that for `N#Cc1ccc(-c2cccc(CC3CNCCO3)c2-c2cnccn2)cc1F` (stereo not drawn) [Example 128, 3-fluoro-3′-[(morpholin-2-yl)methyl]-2′-(pyrazin-2-yl)-[1,1′-biphenyl]-4-carbonitrile], 25 to 100 nM.
Turning to `N#Cc1ccc(-c2ccc(F)c(CN3C[C@]4(N)CC[C@H]3C4)c2-c2cnco2)cc1F` [Example 334, 3'-{[(1S,4S)-4-amino-2-azabicyclo[2.2.1]heptan-2-yl]methyl}-3,4'-difluoro-2'-(1,3-oxazol-5-yl)-[1,1'-biphenyl]-4-carbonitrile], the concentration for half-maximal inhibition (IC50) is 10 to 25 nM.
As for `N#Cc1ccc(-c2cc(C3CNCCO3)ccc2N2CCCCC2)cc1F` (stereo not drawn) [Example 168, 3-fluoro-5′-(morpholin-2-yl)-2′-(piperidin-1-yl)-[1,1′-biphenyl]-4-carbonitrile], the IC50 is 100 to 1000 nM.
Regarding `N#Cc1ccc(-c2cccc(C[C@@H]3CNCCO3)c2-c2cncs2)cc1F` (single isomer, unassigned) [Example 23], the IC50 lay within 10 to 25 nM.
On to `N#Cc1ccc(-c2cccc(CN3[C@@H]4CC[C@H]3[C@@H](N)C4)c2C(F)F)cc1F` (racemic) [Example 301, 3'-{[(1S,2S,4R)-2-amino-7-azabicyclo[2.2.1]heptan-7-yl]methyl}-2'-(difluoromethyl)-3-fluoro-[1,1'-biphenyl]-4-carbonitrile], for which the IC50 fell in the range of 25 to 100 nM.
Take `N#Cc1ccc(-c2cc(CC3CNCCO3)ccc2N2CC(c3cccnc3)C2)cc1F` (stereo not drawn) [Example 107, 3-fluoro-5′-[(morpholin-2-yl)methyl]-2′-[3-(pyridin-3-yl)azetidin-1-yl]-[1,1′-biphenyl]-4-carbonitrile]: the IC50 was 100 to 1000 nM.
For the compound `N#Cc1ccc(-c2cccc(C[C@@H]3CNCCO3)c2-c2scnc2Cl)cc1F` (single isomer, unassigned) [Example 37], the IC50 is 10 to 25 nM.
The result for `N#Cc1ccc(-c2cccc(C[C@@H]3CNCCO3)c2C2=CCOC2)cc1F` (single isomer, unassigned) [Example 8] reads less than 10 nM; that for `N#Cc1ccc(-c2cccc(CC3CNCCO3)c2N2CCC2)cc1` (stereo not drawn) [Example 50, 2′-(azetidin-1-yl)-3′-[(morpholin-2-yl)methyl]-[1,1′-biphenyl]-4-carbonitrile], 100 to 1000 nM.
`N#Cc1ccc(-c2cc(F)cc(C[C@H]3CNCCO3)c2-c2ccns2)cc1F` (single isomer, unassigned) [Example 6]: the IC50 lay in the range of 10 to 25 nM.
